US10238670B2, “9-aminomethyl minocycline compounds and methods of use thereof in urinary tract infection (UTI) treatment” (Paratek Pharmaceuticals, Inc., priority 2016, dated 2019)
Read-outs that look alike come from different tables or passages of the source.

Experiment: Phase 1b study in female adults with cystitis, urine PK
Type: in vivo, human
Settings: for Ae0-24 (amount excreted in urine): mean; for clearance: female, human, urine and plasma
Description: Urine was collected, the volume recorded, and analyzed for Compound 1 concentration at the following times: • Day 1 to 2: pooled total urine 0 to 4, 4 to 8, 8 to 12, and 12-24 hours after the t=0 h dose; Collection of the 12 to 24 h sample should be completed prior to the t=24 h dose on Day 2; • Day 5 to 6: pooled total urine 0 to 4, 4 to 8, 8 to 12, and 12-24 hours after the t=96 h dose;
Urine was pooled during the intervals above. At the end of each interval, the time and total volume were recorded.
Compound 1 urine concentration data was used to determine the amount excreted in a dosing interval, the urinary excretion rate, and, in conjunction with the plasma concentration data, to estimate the renal clearance (CLr) of Compound 1.
Urine was collected and the volume recorded at the following times: • Day 1 to 2: pooled total urine 0 to 4, 4 to 8, 8 to 12, and 12-24 hours after the t=0 h dose; • Day 5 to 6: pooled total urine 0 to 4, 4 to 8, 8 to 12, and 12-24 hours after the t=96 h dose;
At the end of each collection time period the pooled urine was frozen at −20° C. or colder and the total volume of urine collected for the time period was recorded. The samples were kept frozen at −20° C. or colder pending shipment to the bioanalytical laboratory.
The urine sample volume, its Compound 1 concentration, the amount of Compound 1 excreted in the urine (product of volume and concentration) over a dosing interval, the urinary excretion rates and renal clearance (CLr) of Compound 1 following the initial Day 1 and final Day 5 doses were summarized by the treatment groups.

[1] = Day 1, 0-4 hour Post t = 0, IV_PO300
[2] = Day 1, 0-4 hour Post t = 0, PO300
[3] = Day 1, 0-4 hour Post t = 0, PO450
[4] = Day 1, 4-8 hour Post t = 0, IV_PO300
[5] = Day 1, 4-8 hour Post t = 0, PO300
[6] = Day 1, 4-8 hour Post t = 0, PO450
[7] = Day 1, 8-12 hour Post t = 0, IV_PO300
[8] = Day 1, 8-12 hour Post t = 0, PO300
[9] = Day 1, 8-12 hour Post t = 0, PO450
[10] = Day 1-2, 12-24 hour Post t = 0, IV_PO300
[11] = Day 1-2, 12-24 hour Post t = 0, PO300
[12] = Day 1-2, 12-24 hour Post t = 0, PO450
[13] = Day 1, 200 mg IV, 300 mg po (n = 11)
[14] = Day 5, 0-4 hour Post t = 96, IV_PO300
[15] = Day 5, 0-4 hour Post t = 96, PO300
[16] = Day 5, 0-4 hour Post t = 96, PO450
[17] = Day 5, 4-8 hour Post t = 96, IV_PO300
[18] = Day 5, 4-8 hour Post t = 96, PO300
[19] = Day 5, 4-8 hour Post t = 96, PO450
[20] = Day 5, 8-12 hour Post t = 96, IV_PO300
[21] = Day 5, 8-12 hour Post t = 96, PO300
[22] = Day 5, 8-12 hour Post t = 96, PO450
[23] = Day 5-6, 12-24 hour Post t = 96, IV_PO300
[24] = Day 5-6, 12-24 hour Post t = 96, PO300
[25] = Day 5-6, 12-24 hour Post t = 96, PO450
[26] = Day 5, 200 mg IV, 300 mg po (n = 11)

CN(C)c1cc(CNCC(C)(C)C)c(O)c2c1C[C@H]1C[C@H]3[C@H](N(C)C)C(O)=C(C(N)=O)C(=O)[C@@]3(O)C(O)=C1C2=O [Compound 1, 9-[(2,2-dimethyl-propylamino)-methyl]-minocycline]
Urine Concentration, Mean [1]: 65360.0 ng/mL | Urine Concentration, Median [1]: 55000.0 ng/mL | Urine Concentration, Mean [2]: 14003.0 ng/mL | Urine Concentration, Median [2]: 14020.0 ng/mL | Urine Concentration, Mean [3]: 23008.0 ng/mL | Urine Concentration, Median [3]: 10500.0 ng/mL | Urine Concentration, Mean [4]: 43548.2 ng/mL | Urine Concentration, Median [4]: 40900.0 ng/mL | Urine Concentration, Mean [5]: 19088.9 ng/mL | Urine Concentration, Median [5]: 16800.0 ng/mL | Urine Concentration, Mean [6]: 20537.8 ng/mL | Urine Concentration, Median [6]: 15500.0 ng/mL | Urine Concentration, Mean [7]: 32407.3 ng/mL | Urine Concentration, Median [7]: 33700.0 ng/mL | Urine Concentration, Mean [8]: 19981.0 ng/mL | Urine Concentration, Median [8]: 13650.0 ng/mL | Urine Concentration, Mean [9]: 11699.0 ng/mL | Urine Concentration, Median [9]: 8995.0 ng/mL | Urine Concentration, Mean [10]: 22410.0 ng/mL | Urine Concentration, Median [10]: 19300.0 ng/mL | Urine Concentration, Mean [11]: 20772.0 ng/mL | Urine Concentration, Median [11]: 21300.0 ng/mL | Urine Concentration, Mean [12]: 25713.0 ng/mL | Urine Concentration, Median [12]: 19550.0 ng/mL | fe0-24 [dose absorbed] [13]: 20.4% | fe0-24 [dose administered] [13]: 20.4% | Ae0-24 (amount excreted in urine) (Day 1, 200 mg IV, 300 mg po (n = 11), total dose 200 IV): 40.70 mg | fe0-24 [dose absorbed] (Day 1, 300 mg po (n = 10)): 18.7% | fe0-24 [dose administered] (Day 1, 300 mg po (n = 10)): 6.5% | Ae0-24 (amount excreted in urine) (Day 1, 300 mg po (n = 10), total dose 600 po): 39.24 mg | fe0-24 [dose absorbed] (Day 1, 450 mg po (n = 10)): 11.4% | fe0-24 [dose administered] (Day 1, 450 mg po (n = 10)): 4.0% | Ae0-24 (amount excreted in urine) (Day 1, 450 mg po (n = 10), total dose 900 po): 35.95 mg | Urine Concentration, Mean [14]: 42710.0 ng/mL | Urine Concentration, Median [14]: 26250.0 ng/mL | Urine Concentration, Mean [15]: 30900.0 ng/mL | Urine Concentration, Median [15]: 26850.0 ng/mL | Urine Concentration, Mean [16]: 35988.9 ng/mL | Urine Concentration, Median [16]: 25700.0 ng/mL | Urine Concentration, Mean [17]: 26090.0 ng/mL | Urine Concentration, Median [17]: 28500.0 ng/mL | Urine Concentration, Mean [18]: 29111.1 ng/mL | Urine Concentration, Median [18]: 18200.0 ng/mL | Urine Concentration, Mean [19]: 48117.0 ng/mL | Urine Concentration, Median [19]: 33700.0 ng/mL | Urine Concentration, Mean [20]: 33237.0 ng/mL | Urine Concentration, Median [20]: 14850.0 ng/mL | Urine Concentration, Mean [21]: 25350.0 ng/mL | Urine Concentration, Median [21]: 19600.0 ng/mL | Urine Concentration, Mean [22]: 30466.0 ng/mL | Urine Concentration, Median [22]: 20600.0 ng/mL | Urine Concentration, Mean [23]: 21480.0 ng/mL | Urine Concentration, Median [23]: 12590.0 ng/mL | Urine Concentration, Mean [24]: 17940.0 ng/mL | Urine Concentration, Median [24]: 16000.0 ng/mL | Urine Concentration, Mean [25]: 30280.0 ng/mL | Urine Concentration, Median [25]: 23400.0 ng/mL | fe0-24 [dose absorbed] [26]: 30.7% | fe0-24 [dose administered] [26]: 10.8% | Ae0-24 (amount excreted in urine) (Day 5, 200 mg IV, 300 mg po (n = 11), total dose 300 po): 32.27 mg | fe0-24 [dose absorbed] (Day 5, 300 mg po (n = 10)): 36.4% | fe0-24 [dose administered] (Day 5, 300 mg po (n = 10)): 12.7% | Ae0-24 (amount excreted in urine) (Day 5, 300 mg po (n = 10), total dose 300 po): 38.21 mg | fe0-24 [dose absorbed] (Day 5, 450 mg po (n = 10)): 34.8% | fe0-24 [dose administered] (Day 5, 450 mg po (n = 10)): 12.2% | Ae0-24 (amount excreted in urine) (Day 5, 450 mg po (n = 10), total dose 450 po): 54.87 mg | clearance (intravenous, 200 mg, Day 1, IV_PO300, read-out: Renal CL, Geo. Mean (converted)): 33 mL/min | clearance (intravenous, 200 mg, Day 1, IV_PO300, read-out: Renal CL, Mean (converted)): 38.3 mL/min | clearance (intravenous, 200 mg, Day 1, IV_PO300, read-out: Renal CL, Median (converted)): 27.2 mL/min | clearance (oral, 300 mg, Day 5, IV_PO300, read-out: Renal CL, Geo. Mean (converted)): 63 mL/min | clearance (oral, 300 mg, Day 5, IV_PO300, read-out: Renal CL, Mean (converted)): 94.6 mL/min | clearance (oral, 300 mg, Day 5, IV_PO300, read-out: Renal CL, Median (converted)): 44 mL/min | clearance (oral, 300 mg, Day 5, PO300, read-out: Renal CL, Geo. Mean (converted)): 57.4 mL/min | clearance (oral, 300 mg, Day 5, PO300, read-out: Renal CL, Mean (converted)): 78.2 mL/min | clearance (oral, 300 mg, Day 5, PO300, read-out: Renal CL, Median (converted)): 58.6 mL/min | clearance (oral, 450 mg, Day 5, PO450, read-out: Renal CL, Geo. Mean (converted)): 21.5 mL/min | clearance (oral, 450 mg, Day 5, PO450, read-out: Renal CL, Mean (converted)): 29.1 mL/min | clearance (oral, 450 mg, Day 5, PO450, read-out: Renal CL, Median (converted)): 27.8 mL/min | Ae 0-4 hrs, Geo. Mean (urine, Day 1, IV_PO300): 11.59 mg | Ae 0-4 hrs, Mean (urine, Day 1, IV_PO300): 13.80 mg | Ae 0-4 hrs, Median (urine, Day 1, IV_PO300): 9.74 mg | Ae 0-24 hrs, Geo. Mean (urine, Day 1, IV_PO300): 36.98 mg | Ae 0-24 hrs, Median (urine, Day 1, IV_PO300): 41.40 mg | Ae 4-8 hrs, Geo. Mean (urine, Day 1, IV_PO300): 7.28 mg | Ae 4-8 hrs, Mean (urine, Day 1, IV_PO300): 8.61 mg | Ae 4-8 hrs, Median (urine, Day 1, IV_PO300): 7.96 mg | Ae 8-12 hrs, Geo. Mean (urine, Day 1, IV_PO300): 5.53 mg | Ae 8-12 hrs, Mean (urine, Day 1, IV_PO300): 6.80 mg | Ae 8-12 hrs, Median (urine, Day 1, IV_PO300): 6.17 mg | Ae 12-24 hrs, Geo. Mean (urine, Day 1, IV_PO300): 12.70 mg
